Experimental data published in patent US8158389B2, “Products and methods for in vivo secretion of monatin” (priority 2005, dated 2012).
Several values for one entry are separate records, joined by “and”; a condition that tells them apart may be missing. Equal values may be shown once.

Assays:
[1] = test system: E. coli BL21 DE3; assay: Preliminary study: novobiocin tolerance after sodium decanoate addition; type: cell-based, Escherichia coli; settings: 2.5 mM sodium decanoate added to the medium
Description: This was taken as evidence that acrAB genes are induced with sodium decanoate addition and conferred resistance to novobiocin. Rosenberg, E. Y., et al., Molecular Microbiol. 48:1609-1619, (2003).

[2] = test system: E. coli MG1655 ΔAcrAB 6-16::aspCproAproNde; assay: AcrAB k.o. validation: growth (OD 600 nm) with novobiocin / sodium decanoate, knockout strain; type: cell-based, Escherichia coli; settings: sodium decanoate 2.5 mM; novobiocin 0 ppm
Experimental: (§1) Single chloramphenicol-resistant colonies were purified by restreaking on appropriate selective media and single colonies were tested by PCR as previously described for the BW25113 knockout strains, to verify the presence of the emrB and acrAB knockouts. The effects of the emrB and acrAB knockouts on the EmrAB and AcrAB transporter systems respectively were determined by assessing the phenotype of the transport mutants using appropriate antibiotics and comparison to wild type control microorganisms as shown in Table 3.1 and Table 3.2 below.

[3] = test system: E. coli MG1655::aspCproApProNde (control); assay: AcrAB k.o. validation: growth (OD 600 nm) with novobiocin / sodium decanoate, control strain; type: cell-based, Escherichia coli; settings: sodium decanoate 2.5 mM; novobiocin 0 ppm
Experimental: as §1

[4] = biological target: T1, AcrAB efflux pump (Escherichia coli, UniProt P31224); assay: Monatin excretion with 2.5 mM sodium decanoate treatment, strains with or without tolC overexpression; type: cell-based; settings: for Monatin/dry cell weight, 25 hr average / Monatin/dry cell weight, 50 hr average: n = 2
T1 construct: endogenous in cells; host or cells: E. coli BL21 (DE3) with aspCproApET32 plus pProNde with or without tolC
Experimental: Strains used for the experiment included E. coli BL21 (DE3) : : aspCproApET32 and tolC pProNde or pProNde without tolC. For inoculum, the E. coli strains were grown overnight at 37° C. and 250 rpm in Luria-Bertani (“LB”) medium with 100 μg/mL ampicillin and 50 μg/mL kanamycin.
For the experimental treatments, Trp-1+glucose medium, a minimal medium that has been used for increased production of tryptophan in E. coli cells (Zeman, et al. Folia Microbiol. 35:200-204, (1990)), was prepared as follows. To 800 mL nanopure water the following reagents were added: 2 g (NH4)2SO4 and 13.6 g KE2PO4. The pH was adjusted to 7.0, the volume was increased to 948 mL, and the medium was autoclaved. Following sterilization, 0.2 g MgSO4.7H2O, 0.01 g CaCl2.2H2O, and 0.5 mg FeSO4.7H2O were added to the medium in a 1.8 mL volume followed by addition of 0.2 mL of Neidhardt's micronutrient solution. Neidhardt, F. C., et al., “Culture medium for Enterobacteria,” J. Bacteriol. 119:736-746, (1974). Neidhardt's medium includes (per liter): 0.18 g (NH4)6(MO7)24-4H2O, 1.24 g H3BO3, 0.36 g CoCl2.6H2O, 0.12 g CuSO4 (anhydrous), 0.8 g MnCl2.4H2O, and 0.14 g ZnSO4.7H2O. A 50% glucose solution was prepared separately and sterile-filtered. Forty mL of glucose solution and 10 mL of 1 M 3-Morpholinopropanesulfonic acid (“MOPS”) buffer were added to the base medium (950 mL) for a 1 L final volume.
Conditions for the treatments included 30° C. throughout the experiment and 250 rpm agitation. At 0.4 OD600 nm, induction of the plasmid genes was initiated. At induction, 0.5 mM IPTG, 0.5% arabinose, 0.5 mM pyridoxine hydrochloride, and 0.2 mL of Balch's vitamins (Balch, W. E., et al., “Methanogens: reevaluation of a unique biological group,” Microbiol. Rev. 43:260-296, (1979)) were added. […] Some treatments included 2.5 mM sodium decanoate addition at 3 hours following induction.
The amount of monatin excreted was determined using the method described in Example 13.
In this example, the combination of induction of the AcrAB efflux pump with increased availability of the TolC channels was evaluated. E. coli strains overexpressing the tolC gene were additionally subjected to treatment with 2.5 mM sodium decanoate to simultaneously induce the AcrAB pumps.

[5] = test system: E. coli MG1655 ΔAcrAB; assay: Monatin excretion with 2.5 mM sodium decanoate, E. coli MG1655 ΔAcrAB with or without marA (24, 30, 72 h); type: cell-based, Escherichia coli; settings: n = 2
[6] = E. coli BL21 DE3 aspC proApET32 & pProNde w/o tolC (control)
[7] = E. coli BL21 DE3 aspC proApET32 & tolCpProNde
[8] = ΔAcrAB AspC ProA pProNde del pUC19 (control)

T1 sequence (P0AE06 25-397): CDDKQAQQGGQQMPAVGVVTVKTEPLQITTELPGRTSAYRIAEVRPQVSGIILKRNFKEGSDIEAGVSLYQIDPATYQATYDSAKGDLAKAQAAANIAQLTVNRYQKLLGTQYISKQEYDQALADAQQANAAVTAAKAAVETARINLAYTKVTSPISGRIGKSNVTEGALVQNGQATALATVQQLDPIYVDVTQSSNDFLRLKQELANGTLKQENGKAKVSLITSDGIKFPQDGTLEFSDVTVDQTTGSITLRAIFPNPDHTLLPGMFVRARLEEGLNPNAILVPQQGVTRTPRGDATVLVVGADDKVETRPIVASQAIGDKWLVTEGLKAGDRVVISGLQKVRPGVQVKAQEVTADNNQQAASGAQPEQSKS
T1 sequence (P02930 23-493, further chain): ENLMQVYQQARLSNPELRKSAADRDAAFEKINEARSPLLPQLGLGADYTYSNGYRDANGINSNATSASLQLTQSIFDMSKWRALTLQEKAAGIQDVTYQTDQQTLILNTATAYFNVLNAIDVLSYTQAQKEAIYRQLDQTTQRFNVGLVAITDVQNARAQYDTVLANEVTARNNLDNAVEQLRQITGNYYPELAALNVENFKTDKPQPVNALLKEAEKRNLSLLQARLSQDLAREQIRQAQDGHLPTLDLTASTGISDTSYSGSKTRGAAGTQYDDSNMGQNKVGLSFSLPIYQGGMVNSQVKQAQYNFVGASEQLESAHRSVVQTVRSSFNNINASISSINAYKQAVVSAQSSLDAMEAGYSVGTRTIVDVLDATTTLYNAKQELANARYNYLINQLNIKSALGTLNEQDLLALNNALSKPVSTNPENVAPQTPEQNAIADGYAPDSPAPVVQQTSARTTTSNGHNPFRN
T1 sequence (P31224 whole entry): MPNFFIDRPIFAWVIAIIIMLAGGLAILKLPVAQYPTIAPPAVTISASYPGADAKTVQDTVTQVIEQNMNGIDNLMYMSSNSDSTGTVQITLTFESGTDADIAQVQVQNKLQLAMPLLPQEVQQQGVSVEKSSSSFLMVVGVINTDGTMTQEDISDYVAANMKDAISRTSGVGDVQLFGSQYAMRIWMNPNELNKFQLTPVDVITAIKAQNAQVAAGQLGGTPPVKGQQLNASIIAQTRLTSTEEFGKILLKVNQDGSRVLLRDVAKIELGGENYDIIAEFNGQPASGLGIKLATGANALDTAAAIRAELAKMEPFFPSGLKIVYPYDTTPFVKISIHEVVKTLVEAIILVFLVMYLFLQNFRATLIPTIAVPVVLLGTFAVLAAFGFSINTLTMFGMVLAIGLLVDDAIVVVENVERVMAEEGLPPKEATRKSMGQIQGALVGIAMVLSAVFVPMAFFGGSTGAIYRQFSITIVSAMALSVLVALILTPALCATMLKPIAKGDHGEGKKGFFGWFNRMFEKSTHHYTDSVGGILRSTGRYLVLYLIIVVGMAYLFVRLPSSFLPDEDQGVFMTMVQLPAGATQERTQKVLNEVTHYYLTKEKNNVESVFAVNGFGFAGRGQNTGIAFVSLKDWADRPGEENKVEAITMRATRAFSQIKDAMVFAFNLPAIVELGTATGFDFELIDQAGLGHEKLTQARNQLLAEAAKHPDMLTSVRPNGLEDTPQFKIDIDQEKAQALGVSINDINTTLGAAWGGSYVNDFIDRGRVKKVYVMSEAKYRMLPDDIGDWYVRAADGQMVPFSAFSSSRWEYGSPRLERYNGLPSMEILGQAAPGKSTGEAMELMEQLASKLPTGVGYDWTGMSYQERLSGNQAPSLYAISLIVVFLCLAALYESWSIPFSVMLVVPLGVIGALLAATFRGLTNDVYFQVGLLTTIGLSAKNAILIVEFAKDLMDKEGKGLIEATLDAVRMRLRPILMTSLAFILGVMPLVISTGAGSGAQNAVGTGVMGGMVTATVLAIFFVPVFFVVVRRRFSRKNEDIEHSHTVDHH

CCCCCCCCCC(=O)[O-].[Na+] [sodium decanoate] was tested, and the tolerance to novobiocin [1] was 80 to 160 µg/mL, the “OD 600 nm at 19 hours” value [2] was 0.885 and the “OD 600 nm at 19 hours” value [3] was 1.396. For the same compound, the “Monatin/dry cell weight, 25 hr” value [4, 6] was 0.19 mg monatin/g dcw and 0.17 mg monatin/g dcw, the “Monatin/dry cell weight, 50 hr” value [4, 6] was 0.09 mg monatin/g dcw and 0.11 mg monatin/g dcw and the “Monatin/dry cell weight, 25 hr” value [4, 7] was 8.88 mg monatin/g dcw and 12.19 mg monatin/g dcw. The “Monatin/dry cell weight, 50 hr” value [4, 7] was 7.99 mg monatin/g dcw and 10.23 mg monatin/g dcw, the “Monatin/dry cell weight, 25 hr average” value ([4]; pProNde w/o tolC (control)) was 0.18 mg monatin/g dcw and the “Monatin/dry cell weight, 50 hr average” value ([4]; pProNde w/o tolC (control)) was 0.10 mg monatin/g dcw. The “Monatin/dry cell weight, 25 hr average” value ([4]; tolCpProNde) was 10.53 mg monatin/g dcw, the “Monatin/dry cell weight, 50 hr average” value ([4]; tolCpProNde) was 9.11 mg monatin/g dcw and the “Mean monatin per dry cell weight, 24” value [5, 8] was 22.2 mg/g. For the same compound, the “Mean monatin per dry cell weight, 30” value [5, 8] was 20.6 mg/g, the “Mean monatin per dry cell weight, 72” value [5, 8] was 62.6 mg/g and the “Mean monatin per dry cell weight, 24” value ([5]; ΔAcrAB with marA insert) was 54.6 mg/g. For the same compound, the “Mean monatin per dry cell weight, 30” value ([5]; ΔAcrAB with marA insert) was 56.0 mg/g and the “Mean monatin per dry cell weight, 72” value ([5]; ΔAcrAB with marA insert) was 209.0 mg/g.
